Results taken from the CheMixHub viscosity set.
“And” between values parts separate entries of the source, which are not always exact repeats. Equal values may be shown once.

How the values were obtained:
[1] = xn = mol fraction of the nth substance listed

CCCCCCCC[n+]1ccn(C)c1.F[B-](F)(F)F
101 kPa
Conditions | viscosity
298.15 K | 336.3 mPa·s and 336.3 mPa·s
303.15 K | 257.5 mPa·s
308.15 K | 193.8 mPa·s
313.15 K | 148.8 mPa·s
323.15 K | 92.1 mPa·s

CCC1CCCCC1
100 kPa
Conditions | viscosity
298.15 K | 0.797 mPa·s and 0.792 mPa·s and 0.801 mPa·s
303.15 K | 0.747 mPa·s and 0.741 mPa·s
308.15 K | 0.705 mPa·s and 0.697 mPa·s and 0.701 mPa·s
313.15 K | 0.662 mPa·s and 0.65 mPa·s and 0.664 mPa·s
318.15 K | 0.627 mPa·s and 0.617 mPa·s
323.15 K | 0.585 mPa·s and 0.57 mPa·s and 0.586 mPa·s

Cc1cccc2ccccc12
100 kPa
Conditions | viscosity
303.15 K | 2.58 mPa·s and 2.62 mPa·s and 2.582 mPa·s
323.15 K | 1.75 mPa·s and 1.75 mPa·s and 1.748 mPa·s

CC1CCCCC1=O (stereo not given)
viscosity [mPa·s]
Conditions | 303.15 K | 308.15 K | 313.15 K
100 kPa | 2.225 | 2.168 | 2.111
101 kPa | 2.225 | 2.168 | –
101.33 kPa | 1.406 | – | –

O=[N+]([O-])c1ccccc1O
viscosity [mPa·s]
Conditions | 313.15 K | 323.1 K | 323.15 K
101 kPa | 2.755 | 2.68 | –
101.33 kPa | – | – | 2.31

CC(O)CN(C)C (stereo not given)
101 kPa
Conditions | viscosity [mPa·s]
303.15 K | 1.221
308.15 K | 1.097
313.15 K | 0.99
318.15 K | 0.902
323.15 K | 0.825

NCCNCCO.O=S(=O)([N-]S(=O)(=O)C(F)(F)F)C(F)(F)F.[Li+]
Conditions | viscosity [mPa·s]
323.15 K, 101 kPa | 735.9

CCCCCCCCCO
viscosity
Conditions | 298 K | 298.15 K | 303.15 K | 308.15 K | 318.15 K | 323.15 K
100 kPa | 9.587 mPa·s and 7.614 mPa·s | 9.566 mPa·s | 7.967 mPa·s | 6.59 mPa·s and 6.675 mPa·s | 4.852 mPa·s and 4.814 mPa·s | 4.179 mPa·s and 4.145 mPa·s
101.3 kPa | – | 8.965 mPa·s and 9.692 mPa·s | 7.375 mPa·s | 6.114 mPa·s and 6.494 mPa·s | – | –
101.33 kPa | – | – | 7.376 mPa·s | – | – | –

C=CCn1cc[n+](C)c1.O=S(=O)([N-]S(=O)(=O)C(F)(F)F)C(F)(F)F
Conditions | viscosity [mPa·s]
298.15 K, 100 kPa | 34.31

CC(=O)N(C)C
Conditions | viscosity
293.15 K, 101.33 kPa | 1.02 mPa·s
298 K, 101.33 kPa | 0.906 mPa·s
298.15 K, 101.3 kPa | 0.917 mPa·s
298.15 K, 101.33 kPa | 0.92 mPa·s
298.16 K, 101 kPa | 0.927 mPa·s
303.15 K, 101.3 kPa | 0.8769 mPa·s
308.15 K, 101.33 kPa | 0.823 mPa·s
313.15 K, 100 kPa | 0.765 mPa·s
323.15 K, 101 kPa | 0.673 mPa·s and 0.69 mPa·s
323.15 K, 101.33 kPa | 0.72 mPa·s

CN(C)CCCO
viscosity [mPa·s]
Conditions | 293.15 K | 303.15 K | 308.15 K | 313.15 K | 318.15 K | 323.15 K
100 kPa | 7.42 | 5.228 | – | 4.007 | – | 3.082
101 kPa | – | 4.933 | 4.22 | 3.632 | 3.155 | 2.765

CCCCCCCC[P+](CC)(CC)CC.O=[N+]([O-])c1cn[n-]c1
100 kPa
Conditions | viscosity [mPa·s]
293.15 K | 398
298.15 K | 282
303.15 K | 207
308.15 K | 155
313.15 K | 119
318.15 K | 94
323.15 K | 75

CC(=O)OCCC1CCCCC1
101 kPa
Conditions | viscosity [mPa·s]
300 K | 2.54
310 K | 2.07
320 K | 1.72

BrC(Br)(Br)Br
Conditions | viscosity [mPa·s]
298.15 K, 101 kPa | 3.987

NCCNCCO.O=S(=O)([N-]S(=O)(=O)C(F)(F)F)C(F)(F)F.[Li+] + O
[1], 323.15 K, 101 kPa
Conditions | viscosity [mPa·s]
x1 = 0.0304 | 1.63
x1 = 0.06 | 3.61
x1 = 0.0997 | 7.57
x1 = 0.2003 | 27.72
x1 = 0.3009 | 65.11
x1 = 0.3955 | 114.4
x1 = 0.4975 | 184.4
x1 = 0.599 | 272.2
x1 = 0.7014 | 372.3
x1 = 0.8015 | 486.8
x1 = 0.8978 | 605.3

CCC1CCCCC1 + CCCCCCCCCC(=O)OCC
viscosity [mPa·s], [1], 100 kPa
Conditions | x1 = 0.1001 | x1 = 0.1999 | x1 = 0.3001 | x1 = 0.4 | x1 = 0.5002 | x1 = 0.5998 | x1 = 0.7 | x1 = 0.8 | x1 = 0.9001
293.15 K | 2.153 | 1.979 | 1.807 | 1.642 | 1.487 | 1.342 | 1.204 | 1.079 | 0.96
298.15 K | 1.963 | 1.807 | 1.655 | 1.51 | 1.373 | 1.242 | 1.12 | 1.007 | 0.9
303.15 K | 1.778 | 1.642 | 1.51 | 1.382 | 1.261 | 1.146 | 1.038 | 0.936 | 0.84
308.15 K | 1.626 | 1.503 | 1.384 | 1.271 | 1.165 | 1.063 | 0.966 | 0.873 | 0.786
313.15 K | 1.494 | 1.385 | 1.276 | 1.174 | 1.078 | 0.987 | 0.9 | 0.815 | 0.734
318.15 K | 1.377 | 1.279 | 1.185 | 1.095 | 1.01 | 0.928 | 0.846 | 0.767 | 0.692
323.15 K | 1.27 | 1.184 | 1.102 | 1.021 | 0.943 | 0.867 | 0.793 | 0.722 | 0.652

CC(=O)N(C)C + CC(C)O
[1], 303.15 K, 101 kPa
Conditions | viscosity [mPa·s]
x1 = 0.1016 | 1.428
x1 = 0.2027 | 1.222
x1 = 0.3046 | 1.1
x1 = 0.5032 | 0.994
x1 = 0.6012 | 0.945
x1 = 0.7055 | 0.939
x1 = 0.906 | 0.884
